According to patent US20190284148A1, “MICROBIOCIDAL OXADIAZOLE DERIVATIVES” (SYNGENTA PARTICIPATIONS AG, priority 2016, published 2019):

What was measured:
[1] = system: Puccinia Recondita f. sp. Tritici; test: Puccinia recondita f. sp. tritici / wheat / leaf disc preventative (brown rust); type: in vivo; conditions: foliar, 200 ppm in the applied formulation, wheat leaf segments cv. Kanzler, preventative (inoculated 1 day after application), assessed 7 to 9 days after application, read-out: disease control compared to untreated control leaf disks
Experimental: Leaf disks or leaf segments of various plant species are cut from plants grown in a greenhouse. The cut leaf disks or segments are placed in multiwell plates (24-well format) onto water agar. The leaf disks are sprayed with a test solution before (preventative) or after (curative) inoculation. Compounds to be tested are prepared as DMSO solutions (max. 10 mg/ml) which are diluted to the appropriate concentration with 0.025% Tween20 just before spraying. The inoculated leaf disks or segments are incubated under defined conditions (temperature, relative humidity, light, etc.) according to the respective test system. A single evaluation of disease level is carried out 3 to 14 days after inoculation, depending on the pathosystem. Percent disease control relative to the untreated check leaf disks or segments is then calculated. Wheat leaf segments cv. Kanzler were placed on agar in multiwell plates (24-well format) and sprayed with the formulated test compound diluted in water. The leaf disks were inoculated with a spore suspension of the fungus 1 day after application. The inoculated leaf segments were incubated at 19° C. and 75% relative humidity (rh) under a light regime of 12 hours light/12 hours darkness in a climate cabinet and the activity of a compound was assessed as percent disease control compared to untreated when an appropriate level of disease damage appears in untreated check leaf segments (7 to 9 days after application). The following compounds at 200 ppm in the applied formulation give at least 80% disease control in this test when compared to untreated control leaf disks under the same conditions, which show extensive disease development.

[2] = system: Glomerella Lagenarium (Colletotrichum Lagenarium); test: Glomerella lagenarium (Colletotrichum lagenarium) liquid culture / cucumber / preventative (anthracnose); type: cell-based; conditions: Colletotrichum orbiculare; 20 ppm in the applied formulation; liquid culture in PDB, 24° C., 3 to 4 days after application; read-out: disease control compared to untreated control (inhibition of growth measured photometrically)
Experimental: Mycelia fragments or conidia suspensions of a fungus prepared either freshly from liquid cultures of the fungus or from cryogenic storage, are directly mixed into nutrient broth. DMSO solutions of the test compound (max. 10 mg/ml) are diluted with 0.025% Tween20 by a factor of 50 and 10 μl of this solution is pipetted into a microtiter plate (96-well format). The nutrient broth containing the fungal spores/mycelia fragments is then added to give an end concentration of the tested compound. The test plates are incubated in the dark at 24° C. and 96% relative humidity. The inhibition of fungal growth is determined photometrically after 2 to 7 days, depending on the pathosystem, and percent antifungal activity relative to the untreated check is calculated.
Conidia of the fungus from cryogenic storage are directly mixed into nutrient broth (PDB—potato dextrose broth). After placing a (DMSO) solution of test compound into a microtiter plate (96-well format), the nutrient broth containing the fungal spores is added. The test plates are incubated at 24° C. and the inhibition of growth is measured photometrically 3 to 4 days after application.
The following compounds at 20 ppm in the applied formulation give at least 80% disease control in this test when compared to untreated control under the same conditions, which show extensive disease development.

[3] = system: Puccinia Recondita f. sp. Tritici; test: Puccinia recondita f. sp. tritici / wheat / leaf disc curative (brown rust); type: in vivo; conditions: foliar, 200 ppm in the applied formulation, wheat leaf segments cv. Kanzler, curative (applied 1 day after inoculation), assessed 6 to 8 days after application, read-out: disease control compared to untreated control leaf disks
Experimental: Leaf disks or leaf segments of various plant species are cut from plants grown in a greenhouse. The cut leaf disks or segments are placed in multiwell plates (24-well format) onto water agar. The leaf disks are sprayed with a test solution before (preventative) or after (curative) inoculation. Compounds to be tested are prepared as DMSO solutions (max. 10 mg/ml) which are diluted to the appropriate concentration with 0.025% Tween20 just before spraying. The inoculated leaf disks or segments are incubated under defined conditions (temperature, relative humidity, light, etc.) according to the respective test system. A single evaluation of disease level is carried out 3 to 14 days after inoculation, depending on the pathosystem. Percent disease control relative to the untreated check leaf disks or segments is then calculated.
Wheat leaf segments cv. Kanzler are placed on agar in multiwell plates (24-well format). The leaf segments are then inoculated with a spore suspension of the fungus. Plates were stored in darkness at 19° C. and 75% relative humidity. The formulated test compound diluted in water was applied 1 day after inoculation. The leaf segments were incubated at 19° C. and 75% relative humidity under a light regime of 12 hours light/12 hours darkness in a climate cabinet and the activity of a compound was assessed as percent disease control compared to untreated when an appropriate level of disease damage appears in untreated check leaf segments (6 to 8 days after application).
The following compounds at 200 ppm in the applied formulation give at least 80% disease control in this test when compared to untreated control leaf disks under the same conditions, which show extensive disease development.

melting point [°C]	Compound	pest or weed control at 200 ppm [1] [%]	inhibition at 20 ppm [2] [%]	pest or weed control at 200 ppm [3] [%]
86 to 91	CCOC(=O)Nc1ccc(-c2noc(C(F)(F)F)n2)cc1F [Compound 1.9, ethyl N-[2-fluoro-4-[5-(trifluoromethyl)-1,2,4-oxadiazol-3-yl]phenyl]carbamate]	≥ 80	≥ 80	≥ 80
73 to 76	CON(C)C(=O)Nc1ccc(-c2noc(C(F)(F)F)n2)cc1C [Compound 1.10, 1-methoxy-1-methyl-3-[2-methyl-4-[5-(trifluoromethyl)-1,2,4-oxadiazol-3-yl]phenyl]urea]	≥ 80	≥ 80	≥ 80
